The numbers were not newly measured in patent publication US20140113009A1, “CONTROLLED APPLICATION OF CROSS-LINKING AGENT” (Avedro, Inc., priority 2012, published 2014), which cites them from elsewhere.

For data set [1] the following is noted: compared with Riboflavin.
The conditions of data set [2]: combined with greater than 40 mM ascorbic acid; after 4 hours of light exposure.

`Cc1cc2nc3c(=O)[nH]c(=O)nc-3n(C[C@H](O)[C@H](O)[C@H](O)COP(=O)(O)O)c2cc1C` [FMN, Riboflavin-5-phosphate]: the “solubility in water relative to Riboflavin” value in data set [1] is on record as “more soluble in water”.

`O=C1O[C@H]([C@@H](O)CO)C(O)=C1O` [ascorbic acid]: the Riboflavin remains unreacted entry in data set [2] is reported as “more than 90%”.
